Patent publication US20150238460A1, “Methods and Compositions For Treating Hepatocellular Carcinoma” (priority 2012, published 2015)
Where two headings read alike, the source gives them in different places.

Tests used:
[1] = system: progressive advanced hepatocellular carcinoma (HCC); settings: two of four patients, no improvement on therapy
[2] = system: advanced, unresectable HCC (various cancers in whole group); assay: Phase I trial G-202-001, expansion group with modified dosing regimen; type: in vivo, human; settings: fifth HCC patient
Text: Virtually all anti-cancer agents have the potential to cause infusion reactions, which are reactions that may be allergic or non-allergic in nature and not related to the known toxicity profile of the agent. Infusion reactions are usually thought of as hypersensitivity reactions, despite the absence of an allergic component in many cases.
Endpoints evaluated in the expansion group included safety, tumor response rate, progression-free survival, and overall survival. Additional secondary endpoints included exploration of pharmacodynamic markers associated with various cancers. Assessments were routinely performed during therapy and following therapy if toxicity was the reason therapy was discontinued.
The only FDA-approved therapy for patients with unresectable HCC is sorafenib tosylate, otherwise known as Nexavar® and/or by the chemical name: 4-(4-{3-[4-Chloro-3-(trifluoromethyl)phenyl]ureido}phenoxy)N2methylpyridine-2-carboxamide 4-methylbenzenesulfonate.

[3] = system: Sarcoplasmic/Endoplasmic Reticulum Calcium ATPase (SERCA) pump; settings: cited from earlier work
[4] = system: advanced hepatocellular carcinoma; settings: cited from earlier work
[5] = system: advanced hepatocellular carcinoma; settings: Asian-Pacific trial, advanced HCC; cited from earlier work

Compound: 8-O-(12-aminododecanoyl)-debutanoyl-thapsigargin aspartate-glutamate-γ-glutamate-γ-glutamate-γ-glutamate OH [G-202]
- disease progression reached after number of cycles [1]: no more than two
- time without disease progression after ceasing treatment [2]: more than four

Compound: C/C=C(/C)C(=O)O[C@H]1C(C)=C2[C@H]([C@@H]1OC(=O)CCCCCCC)[C@@](C)(OC(C)=O)C[C@H](OC(=O)CCC)[C@@]1(O)[C@H]2OC(=O)[C@@]1(C)O [Thapsigargin]
- affinity of binding to SERCA pump [3]: high affinity

Compound: CNC(=O)c1cc(Oc2ccc(NC(=O)Nc3ccc(Cl)c(C(F)(F)F)c3)cc2)ccn1.Cc1ccc(S(=O)(=O)O)cc1 [sorafenib, 4-(4-{3-[4-Chloro-3-(trifluoromethyl)phenyl]ureido}phenoxy)N2methylpyridine-2-carboxamide 4-methylbenzenesulfonate]
- time to radiologic progression ([4]; SHARP Trial, patients with advanced HCC, no prior systemic treatment): 5.5 months
- overall survival ([4]; SHARP Trial, patients with advanced HCC): 10.7 months
- average time to disease progression after beginning sorafenib treatment ([4]; clinical trial of 602 patients with HCC (Llovet 2008)): approximately six
- disease progression on prior sorafenib treatment after ([2]; before G-202): 3 months
- median overall survival [5]: 6.5 months
- time to radiologic progression [5]: 2.8 months
